For assay [1], the system named is P388. The assay can be described thus: Cytotoxicity against mouse P388 cells by MTT assay. Format: functional. Conditions: read-out: ED50 (the source's name). Background: Formazan colour is commonly taken as a measure of viable cells.
Assay [2] relates to HT-29. The assay can be described thus: Cytotoxicity against human HT-29 cells by MTT assay. The format is functional. As to conditions: read-out: ED50 (the source's name).
In assay [3] the test system is A549. In words: Cytotoxicity against human A549 cells by MTT assay. The format is functional. Conditions: read-out: ED50 (the source's name).
The subject of assay [4] is Human betaherpesvirus 5. The assay can be described thus: Antiviral activity against human cytomegalovirus infected in HEL cells assessed as reduction in virus replication at 1 ug/ml. Format: functional, organism-based.
Assay [5] deals with Human betaherpesvirus 5. The assay can be described thus: Antiviral activity against human cytomegalovirus infected in HEL cells assessed as reduction in virus replication. The format is functional. As to conditions: Human betaherpesvirus 5, HEL; read-out: ED50 (the source's name).

Active and inactive are the calls of the source. The rule behind the calls is not given here. A value given as a limit tells only on which side of the number the result lay.

As to `CO[C@H](C(=O)[C@@H](O)[C@@H](C)O)[C@@H]1Cc2cc3cc(O[C@H]4C[C@@H](O[C@@H]5C[C@@H](O)[C@H](O)[C@@H](C)O5)[C@H](O)[C@@H](C)O4)c(C)c(O)c3c(O)c2C(=O)[C@H]1O[C@H]1C[C@@H](O[C@@H]2C[C@@H](O)[C@@H](O[C@@H]3C[C@](C)(O)[C@H](O)[C@@H](C)O3)[C@@H](C)O2)[C@H](O)[C@@H](C)O1` [PLICAMYCIN], the results for the EC50 in assay [1], in assay [2] and in assay [3] were 50 nM, 70 nM and 60 nM, respectively.

Regarding `C=C/C(C)=C/C/C=C(\C)[C@H]1C(=O)C=C(C)[C@@H]1O`, the EC50 was 22000 nM in assay [1], 38000 nM in assay [2], greater than 50000 nM in assay [3] and greater than 50 µg/mL in assay [5]. Further, in assay [4], the result was inactive.
